Experimental data from paper PMC6960190, “Systemic Evaluation on the Pharmacokinetics of Platinum-Based Anticancer Drugs From Animal to Cell Level: Based on Total Platinum and Intact Drugs” (Frontiers in Pharmacology, 2020).
“And” between values parts separate entries of the source, which are not always exact repeats. Equal values may be shown once.

Tests used:
[1] = Pharmacokinetics of intact platinum-based drugs in rats (UPLC-MS/MS) in blood, plasma and ultrafiltrate plasma; conditions: intraperitoneal; for complete elimination time of intact drug: equal moles, plasma and ultrafiltrate plasma
Protocol: The biological samples were pretreatmented by precipitation with acetonitrile. To each 50 µl sample volume, 200 µl of acetonitrile containing IS (25 ng/ml) was added. The samples were then centrifuged for 10 min at 15,000 rpm, after which 5 µl of the supernatant was injected into the UPLC column for analysis of intact drug.
The ACQUITY UPLC I class system consisted of an autosampler, pump, column oven, and controller (waters, MA, USA). Chromatographic separation was performed on an ACQUITY UPLC BEH Amide column (Part NO:186004800, 1.7 µm, 2.1 × 50mm, Waters, MA, USA) and the pre-column is ACQUITY UPLC BEH C18 (1.7µm, Waters, MA, USA). The binary mobile phase consisted of mobile phase B: acetonitrile and mobile phase A: water containing 5 mm ammonium acetate. The injection volume was 5 µl and the column temperature was 40°C. The gradient program was as follows: 0–1 min, 95% phase B; 1–2 min, 95–70% phase B; 2–4 min,70% phase B; 4–5 min, 70–95% phase B; 5–7min, 95% phase B. The total run time is 7.0 min and the flow rate was set at 0.6 ml/min.
The UPLC system was interfaced with a Xevo TQ-XS Mass Spectrometer with MassLynx V4.2 software package (Waters, MA, USA). The mass spectrometer was operated using Turbo Spray source in positive multiple-reaction monitoring-mode (MRM) for intact drug determination. […] The optimal parameters for MS/MS conditions are as follows: capillary 2.4 kV; cone 25 V; desolvation temperature 450 °C.
The assay method was evaluated with four kinds of matrix including blood, plasma, ultrafiltrate plasma, and cell lysate. […] The precision and accuracy for three intact platinum-based drugs in blood/plasma/ultrafiltrate plasma were investigated by replicate analysis of six sets of samples at four concentration levels: 2, 5, 200, and 4,000 ng/ml. The precision and accuracy for the assay method in cell lysate were investigated at four concentration levels of 2, 5, 20, and 160 ng/ml.
(§1) Male Sprague-Dawley rats (n = 18, 200 ± 20g) were provided by Shanghai Jiesijie Experimental Animal Co., Ltd (Shanghai, China) and certificate number was scxk (hu) 2013-0006. Animals were allowed to adapt to the housing environment for 1 week prior to study. […] All animal studies were approved by the Animal Ethics Committee of China Pharmaceutical University.
(§2) Blood-sampling times were arranged as 0, 0.083, 0.5, 1, 2, 4, 8, 12, 24, 48, 72h post-dose for all three platinum-based anticancer drugs. When each time point reached, blood samples (about 800 µl) were collected from the fossa orbitalis. 150 µl of the blood was spiked into another 1.5 ml tube as the blood sample. The rest of the blood was centrifuged immediately at 8,000 rpm for 10 min and the supernatant plasma was harvested. 50 µl of the supernatant plasma was spiked into 1.5 ml for determining total platinum in plasma sample and 50 µl of the supernatant plasma was spiked into 1.5 ml tube for determining intact platinum-based drug in plasma. The remaining plasma was used to prepare ultrafiltrate plasma with Amicon® Ultra 10K Centrifugal Filter Devices, centrifuged at 14,000 g for 20 min. All the samples were stored at -80 °C until analysis.
(§3) The pharmacokinetic parameters were calculated using the software WinNonlion Version 6.4 by non-compartmental method. Statistical significance was tested by Student’s t -test. P < 0.05 was considered statistically significant, while P < 0.01 was considered highly significant.

[2] = Pharmacokinetics of total platinum in rats (ICP-MS) in blood, plasma and ultrafiltrate plasma; conditions: intraperitoneal, 16.7 nmol/kg, mean ± sd (n = 6)
Protocol: The biological samples were pretreatmented by adding 60-fold volume of ICP-MS diluent, which is an aqueous solution containing 2% nitric acid and 0.5% Triton. After vortex for 30 s, the samples were placed quietly for few minutes to obtain a clear supernatant for ICP-MS analysis of total platinum.
Platinum determination was performed with a NexION 2000 Inductively Coupled Plasma-Mass Spectrometer and a Syngistix™ Software-ES version 2.4 (PerkinElmer, USA). Instrumental settings were optimized in order to yield maximum sensitivity for platinum, with the scan mode Peak Hopping, Dwell time per AMU 50 ms and single MCA Channel. […] The assay method was evaluated with four kinds of matrix including blood, plasma, ultrafiltrate plasma, and cell lysate.
as §1, §2, §3

HCT-116 cells [3] = test: Uptake of oxaliplatin (total platinum and intact drug) in HCT-116 cells
Protocol: (§4) Human colon cancer HCT-116 and LOVO cell line was purchased from cell bank of Shanghai Institute of Biochemistry and Cell Biology (Shanghai, China). HCT-116 cells and LOVO cells were maintained as monolayer cultures respectively in McCoy’s 5a medium and F-12K medium, supplemented with 10% fetal bovine serum, 1% penicillin and streptomycin, in a water-saturated atmosphere (95% air/5% CO2) at 37°C.
(§5) For the temperature dependent study, the cell monolayers were treated with 4 ml drug-containing medium at 200 µm for 30 min incubation respectively at 4 °C and 37 °C.
(§6) Finally, all the monolayers of cells treated with drug-containing medium were washed three times with cold HBSS. Then cells were harvested by 0.25% trypsin digestion and the resulting cell suspension was centrifuged at 1,000 rpm for 5 min. For the uptake and elimination studies, pellets were then diluted in appropriate volume of water and repeatedly freeze-thawed three times to obtain drug-containing cell samples. For the subcellular distribution study, the pellets were further treated according to the manufacturer’s protocol of mitochondrial/nuclear separation kit (KeyGEN BioTECH, Nanjing, China) with differential centrifugation method to prepare the isolated cytosol, nucleus, and mitochondria samples. The cytosol, nucleus, and mitochondria were dissolved in the corresponding buffer salt from the instruction. An aliquot of 20 μl of each cellular or subcellular sample was removed for protein determination using BCA protein assay kit according to the manufacturer’s instructions (micro-well plate protocol).

LOVO cells [4] = test: Uptake of oxaliplatin (total platinum and intact drug) in LOVO cells
Protocol: as §4, §5, §6

HCT-116 cells [5] = test: Elimination of oxaliplatin in HCT-116 cells; format: in vitro ADME, Human; conditions: HCT-116, 200 µm oxaliplatin 30 min
Protocol: (§7) Cells were used for studying cellular pharmacokinetics of oxaliplatin.
(§8) Then the drug-containing medium was discarded and the cell monolayers were washed three times with cold HBSS. After that, fresh blank medium was added to the monolayers with incubation for different times of 5, 15, 30, 45, 60, 120 min.
(§9) To evaluate the elimination behavior of oxaliplatin in colon cancer cells, both oxaliplatin and total platinum of samples are determined by UPLC-MS/MS and ICP-MS method. The results are all normalized to cell protein.

LOVO cells [6] = test: Elimination of oxaliplatin in LOVO cells; format: in vitro ADME, Human; conditions: 200 µm oxaliplatin 30 min
Protocol: as §7, §8, §9

HCT-116 cells [7] = test: Subcellular distribution of oxaliplatin (total Pt by ICP-MS) in HCT-116 cells; conditions: HCT-116, 200 µm oxaliplatin, within 2 h
Protocol: as §4
(§10) We treated the cell monolayers in the same way as the uptake study above.
as §6, with “An aliquot of 20 μl of each cellular or subcellular sample was removed for protein determination using BCA protein assay kit according to the manufacturer’s instructions (micro-well plate protocol).” left out
(§11) All the prepared subcellular samples for cytosol, nucleus, and mitochondria are determined by ICP-MS method.

LOVO cells [8] = test: Subcellular distribution of oxaliplatin (total Pt by ICP-MS) in LOVO cells; conditions: 200 µm oxaliplatin, within 2 h
Protocol: as §4, §10
as §6, with “An aliquot of 20 μl of each cellular or subcellular sample was removed for protein determination using BCA protein assay kit according to the manufacturer’s instructions (micro-well plate protocol).” left out
as §11

[9] = intact drug in blood, 16.7 nmol/kg, mean ± sd (n = 6)
[10] = intact drug in plasma, 16.7 nmol/kg, mean ± sd (n = 6)
[11] = intact drug in ultrafiltrate plasma, 16.7 nmol/kg, mean ± sd (n = 6)
[12] = total Pt in ultrafiltrate plasma
[13] = HCT-116, 200 µm oxaliplatin, 15-120 min, normalized to cellular protein
[14] = 200 µm oxaliplatin, 15-120 min, normalized to cellular protein
[15] = ng Pt/mg protein of subcellular organelles

Compound | Cl [1, 9] | Cmax [1, 9] | T1/2 [1, 9] | Vz [1, 9] | Cl [1, 10] | Cmax [1, 10] | T1/2 [1, 10] | Vz [1, 10] | Cl [1, 11] | Cmax [1, 11] | T1/2 [1, 11] | Vz [1, 11] | complete elimination time of intact drug ([1]; intact drug in blood) | Vz ([2]; total Pt in blood) | Cl ([2]; total Pt in plasma) | Vz ([2]; total Pt in plasma) | Cl [2, 12] | Vz [2, 12] | also measured
N.N.O=C([O-])C1(C(=O)[O-])CCC1.[Pt+2] [carboplatin, Carboplatin] | 1.1 mL/h/kg and 1.1 ± 0.1 mL/h/kg | 9.9 ± 0.45 µM | 122 ± 7.8 min | 0.0033 L/kg and 0.0033 ± 0.0004 L/kg | 0.1 mL/h/kg | 11.2 ± 0.49 µM | 117 ± 7.2 min | 0.0028 L/kg and 0.0028 ± 0.0003 L/kg | 1.2 mL/h/kg and 1.2 ± 0.2 mL/h/kg | 10.1 ± 0.75 µM | 91.2 ± 29.4 min | 0.0027 ± 0.0009 L/kg | 12 h | 0.009 L/kg | 0.33 mL/h/kg | 0.014 L/kg | 0.67 mL/h/kg | 0.016 L/kg | Tmax [1, 11]: 25.2 ± 11.4 min
O=C1[O][Pt]2([NH][C@@H]3CCCC[C@H]3[NH]2)[O]C1=O [oxaliplatin, Oxaliplatin] | 49 mL/h/kg and 49 ± 6.6 mL/h/kg | 0.42 ± 0.06 µM | 33 ± 2.4 min | 0.0408 L/kg and 0.0408 ± 0.0058 L/kg | 6.9 mL/h/kg and 6.9 ± 0.6 mL/h/kg | 3.9 ± 0.34 µM | 10.8 ± 0 min | 0.0018 L/kg and 0.0018 ± 0.0001 L/kg | 7.2 mL/h/kg and 7.2 ± 1.7 mL/h/kg | 3.93 ± 0.45 µM | 10.8 ± 0.6 min | 0.0019 ± 0.0006 L/kg | 2 h | 0.001 L/kg | 0.1 mL/h/kg | 0.004 L/kg | 1.4 mL/h/kg | 0.038 L/kg | cellular concentration of total platinum and intact oxaliplatin versus medium concentration (HCT-116 cells [3]; HCT-116, 20-500 µM oxaliplatin, 30 min): increased with increasing medium concentration of oxaliplatin; cellular accumulation of intact oxaliplatin over incubation time (HCT-116 cells [3]; [13]): increased over incubation time at the beginning of drug treatment (0–45 min), then gradually decreased (45–120 min); cellular total platinum over incubation time (HCT-116 cells [3]; [13]): increased within increasing incubation time; cellular accumulation of platinum or oxaliplatin versus temperature (HCT-116 cells [3]; HCT-116, 200 µm oxaliplatin, 30 min, 4 °C vs 37 °C, P < 0.001): significant higher at 37 °C than that at 4 °C; cellular concentration of total platinum and intact oxaliplatin versus medium concentration (LOVO cells [4]; 20-500 µM oxaliplatin, 30 min): increased with increasing medium concentration of oxaliplatin; cellular accumulation of intact oxaliplatin over incubation time (LOVO cells [4]; [14]): increased over incubation time at the beginning of drug treatment (0–45 min), then gradually decreased (45–120 min); cellular total platinum over incubation time (LOVO cells [4]; [14]): increased within increasing incubation time; cellular accumulation of platinum or oxaliplatin versus temperature (LOVO cells [4]; 200 µm oxaliplatin, 30 min, 4 °C vs 37 °C, P < 0.001): significant higher at 37 °C than that at 4 °C; time to complete elimination of cellular intact oxaliplatin (HCT-116 cells [5]; then blank medium): 1 h; cellular platinum after change to blank medium (HCT-116 cells [5]; then blank medium up to 2 h): just has a little decrease in 2 h; time to complete elimination of cellular intact oxaliplatin (LOVO cells [6]; then blank medium): 1 h; cellular platinum after change to blank medium (LOVO cells [6]; then blank medium up to 2 h): just has a little decrease in 2 h; subcellular accumulation of Pt in organelles over incubation time (HCT-116 cells [7]): increased with the increasing incubation time; order of Pt concentration in cytosol, mitochondria and nucleus (HCT-116 cells [7]; [15]): the concentration of Pt in cytosol is more than that in mitochondria, followed by the concentration of Pt in nucleus; subcellular accumulation of Pt in organelles over incubation time (LOVO cells [8]): increased with the increasing incubation time; order of Pt concentration in cytosol, mitochondria and nucleus (LOVO cells [8]; [15]): the concentration of Pt in cytosol is more than that in mitochondria, followed by the concentration of Pt in nucleus
